# Results reported in publication PMC6246682, “Structural Basis of Tau Interaction With BIN1 and Regulation by Tau Phosphorylation” (Frontiers in Molecular Neuroscience, 2018).
# Experiments:
# [1] = biological target: T1, BIN1 SH3 domain (Homo sapiens, UniProt O00499); assay: NMR chemical shift perturbation titration, dissociation constant determination; format: binding; details: peptide/BIN1 SH3 molar ratios 0, 0.5, 1, 2, 4, 8 and 12; 1H-15N HSQC
# T1 construct: The BIN1 isoform 1 and BIN1 SH3 domain were expressed and purified as previously described; made in house
# T1 sequence (O00499 520-593 limits assumed): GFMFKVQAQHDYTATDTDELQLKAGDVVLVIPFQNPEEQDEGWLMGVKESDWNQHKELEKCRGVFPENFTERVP
# Description: The weighted average chemical shift differences were calculated as described by [Garrett et al. (1997)] - i.e., (ΔH^2 + (ΔN×0.2)^2)^1/2, with ΔH and ΔN the chemical shift changes for ^1H and ^15N, respectively. Dissociation constants were obtained by fitting the chemical shift perturbation data to the following equation Δδobs = Δδmax(a + b + Kd−((a + b + Kd)^2−4ab)^1/2)/2a where Δδobs is the weighted average of the chemical shifts in the free and bound states and Δδmax is the maximal signal change upon saturation. Kd is the dissociation constant, a and b are the total peptide and BIN1 SH3 concentrations, respectively. Kd were averaged based on chemical shift perturbations of 7 distinct resonances.
# Labeled resonances correspond to the major chemical shift perturbations, color coded as in Figure 4A. Enlarged regions of the superimposed spectra show 3 resonances involved in the interaction.
# Det ail o f o ver la id 1H-15N HSQC spe ct ra o f BIN1 SH3 do ma in, in t he prese nce o f increa s ing a mo unt o f Tau(210-240) pept ide, mo lar rat io s pe pt ide/BIN1 SH3 0, 0.5, 1, 2, 4, 8 and 12 (co lo r sca le fro m purp le t o gray), o r o f p ho spho-Tau(210-240) pept ide, sa me mo lar rat ios (sa me co lo r sca le). A spect rum is reco rded fo r each t it rat io n po int . […]
# [2] = system: BIN1 isoform 1; assay: 1H-15N HSQC competition with intramolecular BIN1 SH3/CLAP interaction; format: binding; details: 1H-15N HSQC of BIN1 isoform 1 (0.08 mM), 20°C, 900 MHz, molar ratio 1:8
# Description: NMR experiments were recorded on Bruker 950-MHz, 900-MHz, or 600-MHz spectrometers all equipped with a triple-resonance cryogenic probe. NMR measurements were performed in 50 mM sodium phosphate buffer, pH 7.3, 30 mM NaCl, 3 mM DTT and 10% D2O (NMR buffer). BIN1 SH3 domain backbone assignment has been previously reported ([Malki et al., 2017]). […] For side-chain assignment, additional 3D^15N NOESY-HSQC, 3D^15N-edited TOCSY, 3D (H)CCH TOCSY, and 3D H(C)CH TOCSY experiments were recorded. A 3D ^13C-edited NOESY was further used for side-chain assignment validation. All assignment experiments were recorded at 5°C. Chemical shift values (Supplementary Table S1) were directly transferred at 20°C, because the differences of chemical shift values were small between 5 and 20°C. […] BIN1 isoform 1 ^1H-^15N HSQC spectra were recorded at 20°C at 900 MHz (0.08 mM sample) with 3096 points (direct) and 280 points (indirect), for spectral width of 14 ppm and 26 ppm, respectively, and 256 scans. A 3D F1 ^13C/^15N-filtered and F3 ^15N-edited NOESY-HSQC, with WATERGATE (WATER suppression by GrAdient-Tailored Excitation) scheme ([Piotto et al., 1992]), named noesyhsqcf3gpwgx13d, part of the Bruker pulse sequence library, was recorded at 20°C at 950 MHz for the detection of intermolecular NOEs to amide groups. […] Spectra were processed using TopSpin software (Bruker) and analyzed by CcpNmr Analysis ([Vranken et al., 2005]).
# As NMR is sensitive to mobility, this equilibrium translated into detection of BIN1 SH3 domain signals only upon its release from the intramolecular interaction ([Malki et al., 2017]). […] Consequently, in the presence of the phosphorylated Tau peptide (210–240), BIN1 SH3 domain remained immobilized by the intramolecular interaction with BIN1 isoform1 CLAP domain, mainly adopting the closed conformation.
# (A) ^1H-^15N HSQC spectrum of BIN1 isoform 1 (112 KDa, homodimer). […] (B) ^1H-^15N HSQC spectra of BIN1 isoform 1 in the presence of phospho-Tau (210–240), molar ratio 1:8. The signals corresponding to the isolated BIN1 SH3 domain were barely detected.
substance,measurement,setting,value
"phosphorylated Tau (210–240): Tau (210–240) phosphorylated by CDK2/CycA3; T212, T231, S235 full, T217 half-phosphorylated",saturation / affinity in titration,[1],lo wer a ffin it y
same,competition with intramolecular BIN1 SH3/CLAP interaction,[2],not able to displace the intramolecular interaction of BIN1 SH3 with BIN1 CLAP domain
same,competition with intramolecular BIN1 SH3/CLAP interaction,[2]; listed as Phospho-Tau (210–240),cannot compete with the intramolecular interaction of BIN1 SH3 with the CLAP domain
same,competition with intramolecular BIN1 SH3/CLAP interaction,"[2]; listed as Tau (210–240) phosphorylated at four different sites (T212, T217, T231, and S235)",unable to compete with the intramolecular interaction of BIN1 SH3 domain with its CLAP domain
same,competition with intramolecular BIN1 SH3/CLAP interaction,[2]; listed as Tau (210–240) phosphorylated at multiple sites,not able to compete with the intra-molecular interaction of BIN1 SH3 with the CLAP domain as efficiently as its unphosphorylated counterpart
